From ChEMBL document CHEMBL1697731, “Cheminformatics analysis of assertions mined from literature that describe drug-induced liver injury in different species” (Chem Res Toxicol, 2010)

Assays:
[1] = system: Hepatotoxicity; test: Literature-mined compound from Fourches et al multi-species drug-induced liver injury (DILI) dataset, effect in non-rodents
[2] = system: Hepatotoxicity; test: Literature-mined compound from Fourches et al multi-species drug-induced liver injury (DILI) dataset, effect in humans; details: human
[3] = system: Hepatotoxicity; test: Literature-mined compound from Fourches et al multi-species drug-induced liver injury (DILI) dataset, effect in rodents; details: rodentia

| Compound | Hepatotoxicity [1] | Hepatotoxicity [2] | Hepatotoxicity [3] | Hepatotoxicity ([1]; Liver) | Hepatotoxicity ([2]; Liver) | Hepatotoxicity ([3]; Liver) |
| --- | --- | --- | --- | --- | --- | --- |
| CS(=O)(=O)c1ccc(C2=C(c3ccccc3)C(=O)OC2)cc1 [ROFECOXIB] | no drug-induced liver injury reported | drug-induced liver injury reported | drug-induced liver injury reported | – | – | – |
| CCCC(=O)Nc1ccc(OCC(O)CNC(C)C)c(C(C)=O)c1 (stereo not drawn) [ACEBUTOLOL] | no drug-induced liver injury reported | drug-induced liver injury reported | drug-induced liver injury reported | – | – | – |
| Nc1ccc(S(N)(=O)=O)cc1 [SULFANILAMIDE] | – | – | – | no drug-induced liver injury reported | drug-induced liver injury reported | no drug-induced liver injury reported |
| COc1c(N2C[C@@H]3CCCN[C@@H]3C2)c(F)cc2c(=O)c(C(=O)O)cn(C3CC3)c12 [MOXIFLOXACIN] | no drug-induced liver injury reported | drug-induced liver injury reported | no drug-induced liver injury reported | – | – | – |
| Cn1cnc([N+](=O)[O-])c1Sc1ncnc2nc[nH]c12 [AZATHIOPRINE] | – | – | – | no drug-induced liver injury reported | drug-induced liver injury reported | drug-induced liver injury reported |
| C[C@H]1O[C@H](O[C@H]2[C@H](O)[C@@H](O)[C@@H](O[C@H]3[C@H](O)[C@@H](O)C(O)O[C@@H]3CO)O[C@@H]2CO)[C@H](O)[C@@H](O)[C@@H]1N[C@H]1C=C(CO)[C@@H](O)[C@H](O)[C@H]1O (stereo partly drawn) [ACARBOSE] | no drug-induced liver injury reported | drug-induced liver injury reported | drug-induced liver injury reported | – | – | – |
| COc1ccc(CN2CCNCC2)c(OC)c1OC [TRIMETAZIDINE] | no drug-induced liver injury reported | drug-induced liver injury reported | drug-induced liver injury reported | – | – | – |
| CC(C)NNC(=O)c1ccncc1 [IPRONIAZID] | no drug-induced liver injury reported | drug-induced liver injury reported | drug-induced liver injury reported | – | – | – |
| Clc1ccc(C(c2ccccc2Cl)C(Cl)Cl)cc1 (stereo not drawn) [MITOTANE] | drug-induced liver injury reported | drug-induced liver injury reported | no drug-induced liver injury reported | – | – | – |
| OC[C@H]1O[C@@H](n2cnc3c(O)ncnc32)[C@H](O)[C@@H]1O [INOSINE] | no drug-induced liver injury reported | no drug-induced liver injury reported | drug-induced liver injury reported | – | – | – |
| CCc1cc2c(s1)N(C)C(=O)CN=C2c1ccccc1Cl [CLOTIAZEPAM] | no drug-induced liver injury reported | drug-induced liver injury reported | no drug-induced liver injury reported | – | – | – |
| CN1C(=O)CN=C(c2ccccc2F)c2cc([N+](=O)[O-])ccc21 [FLUNITRAZEPAM] | drug-induced liver injury reported | no drug-induced liver injury reported | no drug-induced liver injury reported | – | – | – |
| OCC(CO)N[C@H]1C[C@](O)(CO)[C@@H](O)[C@H](O)[C@H]1O [VOGLIBOSE] | no drug-induced liver injury reported | drug-induced liver injury reported | drug-induced liver injury reported | – | – | – |
| O=c1n(CCCN2CCN(c3cccc(Cl)c3)CC2)nc2ccccn12 [TRAZODONE] | no drug-induced liver injury reported | drug-induced liver injury reported | no drug-induced liver injury reported | – | – | – |
| COc1cc2c(cc1O)CCN[C@]21CS[C@@H]2c3c(OC(C)=O)c(C)c4c(c3[C@H](COC1=O)N1[C@@H]2[C@H]2c3c(cc(C)c(OC)c3O)C[C@@H]([C@@H]1O)N2C)OCO4 [TRABECTEDIN] | no drug-induced liver injury reported | drug-induced liver injury reported | drug-induced liver injury reported | – | – | – |
| O=c1ccn([C@@H]2O[C@H](CO)[C@@H](O)[C@H]2O)c(=O)[nH]1 [URIDINE] | no drug-induced liver injury reported | drug-induced liver injury reported | drug-induced liver injury reported | – | – | – |
| CO[C@H]1C[C@H](O[C@H]2[C@H](C)[C@@H](O[C@@H]3O[C@H](C)C[C@H](N(C)C)[C@H]3OC(C)=O)[C@@H](C)C[C@@]3(CO3)C(=O)[C@H](C)[C@@H](OC(C)=O)[C@@H](C)[C@@H](C)OC(=O)[C@@H]2C)O[C@@H](C)[C@@H]1OC(C)=O [TROLEANDOMYCIN] | drug-induced liver injury reported | drug-induced liver injury reported | drug-induced liver injury reported | – | – | – |
| CC1(C)O[C@@H]2C[C@H]3[C@@H]4CCC5=CC(=O)C=C[C@]5(C)[C@@]4(F)[C@@H](O)C[C@]3(C)[C@]2(C(=O)CO)O1 [TRIAMCINOLONE ACETONIDE] | no drug-induced liver injury reported | no drug-induced liver injury reported | drug-induced liver injury reported | – | – | – |
| FCOC(C(F)(F)F)C(F)(F)F [SEVOFLURANE] | no drug-induced liver injury reported | drug-induced liver injury reported | drug-induced liver injury reported | – | – | – |
| CCCC(C)(COC(N)=O)COC(N)=O [MEPROBAMATE] | no drug-induced liver injury reported | no drug-induced liver injury reported | drug-induced liver injury reported | – | – | – |
| O=[N+]([O-])OCC(CO[N+](=O)[O-])O[N+](=O)[O-] [NITROGLYCERIN] | no drug-induced liver injury reported | drug-induced liver injury reported | drug-induced liver injury reported | – | – | – |
| O=C(O)c1cn(C2CC2)c2cc(N3CCNCC3)c(F)cc2c1=O [CIPROFLOXACIN] | – | – | – | no drug-induced liver injury reported | drug-induced liver injury reported | drug-induced liver injury reported |
| CCC[C@H](NC(=O)[C@@H]1[C@H]2CCC[C@H]2CN1C(=O)[C@@H](NC(=O)[C@@H](NC(=O)c1cnccn1)C1CCCCC1)C(C)(C)C)C(=O)C(=O)NC1CC1 | no drug-induced liver injury reported | drug-induced liver injury reported | no drug-induced liver injury reported | – | – | – |
| Cc1cc(NS(=O)(=O)c2ccc(N)cc2)no1 [SULFAMETHOXAZOLE] | – | – | – | no drug-induced liver injury reported | drug-induced liver injury reported | no drug-induced liver injury reported |
| Nc1nc2c(ncn2COCCO)c(=O)[nH]1 [ACYCLOVIR] | no drug-induced liver injury reported | drug-induced liver injury reported | drug-induced liver injury reported | – | – | – |
| NC(N)=Nc1nc(CSCCC(N)=NS(N)(=O)=O)cs1 [FAMOTIDINE] | – | – | – | no drug-induced liver injury reported | drug-induced liver injury reported | drug-induced liver injury reported |
